Reference: patent publication US11464793B2, “Nutritional formulations including human milk oligosaccharides and antioxidants and uses thereof” (priority 2010, dated 2022)

Columns and labels:
H1N1 influenza virus [1] = assay: microbe, parasite or virus in culture; format: cell-based; conditions: HMO at 10 mg/mL, MDCK cells, FIG. 1
[2] = system: respiratory syncytial virus (RSV); assay: In vitro inhibition of viral infectivity by purified HMOs (Example 36), RSV; format: cell-based; conditions: co-incubation of virus (about 500 to 1,000 units/mL) with HMO at 1 or 10 mg/mL
Protocol: In this Example, the effect of purified human milk oligosaccharides (HMO) on in vitro inhibition of viral infectivity is analyzed.
Samples are prepared by co-incubation of a uniform virus dose of from about 500 units/mL to about 1,000 units/mL of one of three respiratory viruses: (1) respiratory syncytial virus (RSV); (2) human parainfluenza virus (HPIV3); or (3) H1N1 influenza virus with one of the following HMOs: (1) 3′-sialyllactose (3′SL); (2) 6′-sialyllactose (6′SL); (3) 3′-fucosyllactose (3′FL); (4) 2′-fucosyllactose (2′FL); (5) lacto-N-neotetraose (LNnT); or (6) sialic acid (SA). The HMOs are added at concentrations of either 1 mg/mL or 10 mg/mL.

H1N1 influenza virus [3] = format: cell-based; conditions: for IC50 (mg HMO/mL) H1N1 Influenza: co-incubation of virus (about 500 to 1,000 units/mL) with HMO at 1 or 10 mg/mL
[4] = system: interferon-inducible protein 10 (IP-10); assay: IP-10 in supernatants of RSV-infected peripheral blood mononuclear cells pretreated with HMO (Example 39); format: cell-based, human; conditions: for IP-10 in virus-infected variables: PBMC of two donors, 24 h pretreatment, RSV MOI 0.1, supernatants at 24 and 48 hours, FIGS. 3-6; for IP-10 level reached relative to uninfected controls: RSV-infected PBMC; for dampening of virus-induced inflammation as measured by a decrease in IP-10, comparison: compared with 3′SL; for reduction of inflammation caused by RSV: pretreatment for 24 hours
Protocol: (§1) Specifically, either 3′SL or 6′SL is added, at concentrations of 0.1 mg/mL, 0.2 mg/mL, or 0.5 mg/mL to fresh peripheral blood mononuclear cells and incubated at 37° C. in 5% CO2 to pretreat the cells for approximately 24 hours. LNnT is added, at concentrations of 0.1 mg/mL, 0.2 mg/mL, or 1 mg/mL to fresh peripheral blood mononuclear cells and incubated at 37° C. in 5% CO2 to pretreat the cells for approximately 24 hours. Lactose is included as a carbohydrate control. Matched endotoxin unit concentration controls are included to allow differentiation of ingredient effects from inherent low levels of endotoxin. Some variables are then incubated with RSV at a multiplicity of infection (MOI) of 0.1 for approximately 1 hour at 37° C. in 5% in CO2. Uninfected control variables are incubated with medium for approximately 1 hour at 37° C. in 5% CO2. After approximately one hour, fresh medium alone, or fresh medium containing the appropriate concentration of 3′SL, 6′SL, LNnT, lactose, or endotoxin is added to the appropriate tubes and the cells are incubated for 48 hours at 37° C. in 5% CO2. Supernatants are collected at 24 and 48 hours post-infection.
(§2) Cytokines are measured in supernatants for each variable at 24 and 48 hours to assess the effects of HMOs on the early immune response to RSV. Cytokines are measured using custom Bio-Plex Human cytokine kits from Bio-Rad. Results for interferon-inducible protein 10 (IP-10, also known as CXCL 10) are shown in FIGS. 3 and 4 for 3′SL and 6′SL, and in FIGS. 5 and 6 for LNnT. IP-10 is a CXC chemokine that attracts, binds to and activates the CXCR3 receptor on natural killer cells and memory T cells. IP-10 is expressed by monocytes and a number of other cells, and is induced by interferon. A positive con-elation exists between RSV clinical disease severity in children (as measured by: length of hospital stay, fever, and number of days supplemental O2 is required) and serum IP-10. Therefore, a decrease in IP-10 signals a decrease in severity of RSV disease experienced.

interleukin 10 (IL-10) = assay: IL-10 in supernatants of peripheral blood mononuclear cells with or without RSV (Example 39); format: cell-based, human; conditions: in the presence or absence of RSV; FIGS. 7-10
Protocol: as §1, with “After approximately one hour, fresh medium alone, or fresh medium containing the appropriate concentration of 3′SL, 6′SL, LNnT, lactose, or endotoxin is added to the appropriate tubes and the cells are incubated for 48 hours at 37° C. in 5% CO2. Supernatants are collected at 24 and 48 hours post-infection.” left out
Cytokines are measured in supernatants for each variable at 24 and 48 hours to assess the effects of HMOs on the early immune response to RSV. Cytokines are measured using custom Bio-Plex Human cytokine kits from Bio-Rad. […] A positive con-elation exists between RSV clinical disease severity in children (as measured by: length of hospital stay, fever, and number of days supplemental O2 is required) and serum IP-10. […]

[5] = system: monocyte-derived cytokines; assay: Monocyte-derived cytokines in peripheral blood mononuclear cells with or without RSV (Example 39); format: cell-based, human; conditions: PBMC
Protocol: as §1, §2

[6] = system: human parainfluenza virus (HPIV3); format: cell-based; conditions: co-incubation of virus (about 500 to 1,000 units/mL) with HMO at 1 or 10 mg/mL

SMILES	inhibition at 10000 µg/mL (H1N1 influenza virus [1]; Influenza A virus, H1N1, read-out: inhibition of H1N1 virus infectivity) [%]	IC50 (mg HMO/mL) RSV [2] [mg HMO/mL]	IC50 (mg HMO/mL) H1N1 Influenza (H1N1 influenza virus [3]) [mg HMO/mL]	IP-10 in virus-infected variables [4]	IP-10 level reached relative to uninfected controls [4]	dampening of virus-induced inflammation as measured by a decrease in IP-10, comparison [4]	reduction of inflammation caused by RSV [4]	IL-10 concentration (interleukin 10 (IL-10))	production of monocyte-derived cytokines (IL-10, MIP-1β, Interferon-γ, IL-8, IL-1α, IL-1β, IL-1ra) [5]	IC50 (mg HMO/mL) HPIV3 [6] [mg HMO/mL]	anti-viral activity against H1N1 influenza virus (H1N1 influenza virus [3]; HMO at 1 mg/mL)	RSV-induced IP-10, Donor B ([4]; Donor B, 0.1, 0.2 or 0.5 mg/mL)	RSV-induced IP-10, Donor E ([4]; Donor E, 0.1, 0.2 or 0.5 mg/mL)	inhibition of H1N1 virus infectivity (H1N1 influenza virus [1])
CC(=O)N[C@H]1[C@H]([C@H](O)[C@H](O)CO)OC(O)(C(=O)O)C[C@@H]1O (stereo partly shown) [SA, sialic acid]	> 90	–	–	–	–	–	–	–	–	–	–	–	–	–
CC(=O)N[C@H]1[C@H](O[C@H]2[C@@H](O)[C@@H](CO)O[C@@H](O[C@H]3[C@H](O)[C@@H](O)C(O)O[C@@H]3CO)[C@@H]2O)O[C@H](CO)[C@@H](O[C@@H]2O[C@H](CO)[C@H](O)[C@H](O)[C@H]2O)[C@@H]1O (mixture of isomers) [LNnT, lacto-N-neotetraose]	–	>10	>10	clearly downregulates IP-10	reduce IP-10 to levels found in uninfected controls	more effective than 3′SL	effective in reducing inflammation caused by RSV	increases IL-10 concentration in a dose-dependent manner	immunomodulatory in the presence or absence of the virus	–	–	–	–	–
CC(=O)N[C@H]1[C@H]([C@H](O)[C@H](O)CO)O[C@@](O[C@H]2[C@@H](O)[C@@H](CO)O[C@@H](O[C@H]3[C@H](O)[C@@H](O)C(O)O[C@@H]3CO)[C@@H]2O)(C(=O)O)C[C@@H]1O (stereo partly shown) [3′SL, 3′-sialyllactose]	–	>10	~5	dampen RSV-induced IP-10	–	–	effective in reducing inflammation caused by RSV	–	immunomodulatory in the presence or absence of the virus	>10	inhibited	not effective	downregulates RSV-induced IP-10	–
CC(=O)N[C@H]1[C@H]([C@H](O)[C@H](O)CO)O[C@@](OC[C@H]2O[C@@H](O[C@H]3[C@H](O)[C@@H](O)[C@H](O)O[C@@H]3CO)[C@H](O)[C@@H](O)[C@H]2O)(C(=O)O)C[C@@H]1O [6′SL, 6′-sialyllactose]	–	>10	~10	clearly downregulates IP-10	reduce IP-10 to levels found in uninfected controls	more effective than 3′SL	effective in reducing inflammation caused by RSV	increases interleukin 10 (IL-10) concentration in a dose-dependent manner	immunomodulatory in the absence of the virus	>10	–	–	–	approximately 60%
